Where two headings read alike, the source gives them in different places.
Experiments:
[1] = tested on: Mycosphaerella graminicola; Anamorph: Septoria tritici; assay: Leaf Blotch of Wheat fungicidal activity (SEPTTR); format: in vivo; settings: Zymoseptoria tritici; for pest or weed control at 100 ppm: rate 100 ppm; for pest or weed control at 121.5 g/ha: rate 121.5 g/H
Method in brief: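 Acetone solutions diluted with nine volumes of water containing 110 ppm Triton X-100, sprayed to run-off on first-leaf wheat seedlings (Yuma), inoculated with S. tritici before or after treatment. Plants held in dew chambers, then in a 20 °C greenhouse. Disease severity (0–100%) scored when untreated plants fully symptomatic; % control relative to untreated.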

Puccinia triticina = assay: Wheat Brown Rust fungicidal activity (PUCCRT); format: in vivo; settings: Puccinia triticina; for pest or weed control at 100 ppm: rate 100 ppm; for pest or weed control at 121.5 g/ha: rate 121.5 g/H
Method in brief: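 Yuma wheat seedlings at first-leaf stage sprayed to run-off (acetone solution in water with 110 ppm Triton X-100) or track-sprayed as EC with 0.1% Trycol 5941; inoculated with P. triticina spores before or after treatment. Overnight dark dew at 22° C., then greenhouse 24° C.; disease severity 0–100% gives percent control vs untreated.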

Phakopsora pachyrhizi = assay: Asian Soybean Rust fungicidal activity (PHAKPA); format: in vivo; settings: 25 ppm
Experimental: Evaluation of Fungicidal Activity: Asian Soybean Rust (Phakopsora pachyrhizi; Bayer Code PHAKPA)
Technical grades of materials were dissolved in acetone, which were then mixed with nine volumes of water containing 0.011% Tween 20. The fungicide solutions were applied onto soybean seedlings using an automated booth sprayer to run-off. All sprayed plants were allowed to air dry prior to further handling.
Soybean plants (variety Williams 82) were grown in soil-less Metro mix, with one plant per pot. Two weeks old seedlings were used for testing. Plants were inoculated either 3 days prior to or 1 day after fungicide treatments. Plants were incubated for 24 h in a dark dew room at 22° C. and 100% RH then transferred to a growth room at 23° C. for disease to develop. Disease severity was assessed on the sprayed leaves.

[2] = 24 h, 1 Day Protectant, read-out: Disease control SEPTTR 1DP
[3] = 72 h, 3 Day Curative, read-out: Disease control SEPTTR 3DC
[4] = 24 h, 1 Day Protectant, read-out: Disease control PUCCRT 1DP
[5] = 72 h, 3 Day Curative, read-out: Disease control PUCCRT 3DC

SMILES | pest or weed control at 100 ppm [1, 2] | pest or weed control at 121.5 g/ha [1, 2] | pest or weed control at 100 ppm [1, 3] | pest or weed control at 121.5 g/ha [1, 3] | pest or weed control at 100 ppm (Puccinia triticina; [4]) | pest or weed control at 121.5 g/ha (Puccinia triticina; [4]) | pest or weed control at 100 ppm (Puccinia triticina; [5]) | pest or weed control at 121.5 g/ha (Puccinia triticina; [5]) | Disease Control PHAKPA 1DP (Phakopsora pachyrhizi; 1 Day Protectant) | Disease Control PHAKPA 3DC (Phakopsora pachyrhizi; 3 Day Curative) | melting point
COc1ccnc(C(=O)N[C@H]2COC[C@H](Cc3cc(F)c(F)c(F)c3)[C@@H](OCC(C)C)[C@H](C)OC2=O)c1OCOC(C)=O [Compound F109] | 80 to 100% | 80 to 100% | 80 to 100% | 80 to 100% | 80 to 100% | 80 to 100% | 80 to 100% | 80 to 100% | A (80-100) | B (More than 0-Less than 80) | –
COc1ccnc(C(=O)N[C@H]2COC[C@H](Cc3ccc(Cl)cc3Cl)[C@@H](OC(=O)C(C)C)[C@H](C)OC2=O)c1O [Compound F41] | 80 to 100% | – | 80 to 100% | – | 80 to 100% | – | – | – | – | – | 79 to 82 °C
COc1ccnc(C(=O)N[C@H]2COC[C@H](Cc3cccc4ccccc34)[C@@H](OCCCC(F)(F)F)[C@H](C)OC2=O)c1O [Compound F6] | 80 to 100% | – | 0 to 80% | – | 0 to 80% | – | – | – | – | – | 118 to 122 °C
COc1ccnc(C(=O)N[C@H]2COC[C@H](CC3CCCC3)[C@@H](OC(=O)C(C)C)[C@H](C)OC2=O)c1O [Compound F45] | 80 to 100% | – | 80 to 100% | – | 80 to 100% | – | 0 to 80% | – | – | – | 55 to 59 °C
COc1ccnc(C(=O)N[C@H]2COC[C@H](CCc3ccccc3)[C@@H](OCC(C)C)[C@H](C)OC2=O)c1O [Compound F4] | 80 to 100% | – | 80 to 100% | – | 80 to 100% | – | 80 to 100% | – | – | – | 117 to 120 °C
COc1ccnc(C(=O)N[C@H]2COC[C@H](Cc3cccc4ccccc34)[C@@H](OC(=O)C(C)C)[C@H](C)OC2=O)c1OC(C)=O [Compound F51, (3S,6S,7R,8S)-3-(3-acetoxy-4-methoxypicolinamido)-6-methyl-8-(naphthalen-1-ylmethyl)-4-oxo-1,5-dioxonan-7-yl isobutyrate] | 80 to 100% | – | 80 to 100% | – | 80 to 100% | – | 0 to 80% | – | – | – | 104 to 108 °C
CCCCCO[C@@H]1[C@@H](CC2CCCC2)COC[C@H](NC(=O)c2nccc(OC)c2OC(C)=O)C(=O)O[C@H]1C [Compound F79] | 80 to 100% | 80 to 100% | 80 to 100% | 80 to 100% | 80 to 100% | 80 to 100% | 80 to 100% | 0 to 80% | – | – | 46 to 51 °C
CCCCCO[C@@H]1[C@@H](Cc2ccc(C)cc2)COC[C@H](NC(=O)c2nccc(OC)c2OCOC(C)=O)C(=O)O[C@H]1C [Compound F88] | 80 to 100% | – | 80 to 100% | – | 80 to 100% | – | 80 to 100% | – | – | – | 39 to 43 °C
COc1ccnc(C(=O)N[C@H]2COC[C@H](Cc3ccc(F)cc3)[C@@H](OC(=O)C3CC3)[C@H](C)OC2=O)c1O [Compound F13] | 80 to 100% | – | 80 to 100% | – | 80 to 100% | – | 80 to 100% | – | – | – | 68 to 73 °C
COc1ccnc(C(=O)N[C@H]2COC[C@H](Cc3ccc(F)cc3)[C@@H](OC(=O)C(C)C)[C@H](C)OC2=O)c1OCOC(C)=O [Compound F91] | 80 to 100% | – | 80 to 100% | – | 80 to 100% | – | 80 to 100% | – | – | – | 52 to 56 °C
COc1ccnc(C(=O)N[C@H]2COC[C@H](Cc3cccc4ccccc34)[C@@H](OCCCC(F)(F)F)[C@H](C)OC2=O)c1OCOC(C)=O [Compound F84] | 80 to 100% | – | – | – | 80 to 100% | – | 80 to 100% | – | – | – | 61 to 68 °C
COc1ccnc(C(=O)N[C@H]2COC[C@H](Cc3cccc4ccccc34)[C@@H](Oc3ccc(C)cc3)[C@H](C)OC2=O)c1OCOC(C)=O [Compound F85] | 80 to 100% | – | 0 to 80% | – | 80 to 100% | – | 0 to 80% | – | – | – | 83 to 88 °C
CCCCCO[C@@H]1[C@@H](CC2CCCC2)COC[C@H](NC(=O)c2nccc(OC)c2O)C(=O)O[C@H]1C [Compound F47] | 80 to 100% | – | 80 to 100% | – | 80 to 100% | – | 80 to 100% | – | – | – | 109 to 111 °C
CCCCCO[C@@H]1[C@@H](Cc2ccc(C)cc2)COC[C@H](NC(=O)c2nccc(OC)c2O)C(=O)O[C@H]1C [Compound F11] | 80 to 100% | – | 80 to 100% | – | 80 to 100% | – | 0 to 80% | – | – | – | 97 to 99 °C
COc1ccnc(C(=O)N[C@H]2COC[C@H](CCc3ccccc3)[C@@H](OCC(C)C)[C@H](C)OC2=O)c1OC(C)=O [Compound F50] | 80 to 100% | – | 80 to 100% | – | 80 to 100% | – | 80 to 100% | – | – | – | 61 to 65 °C
COc1ccnc(C(=O)N[C@H]2COC[C@H](Cc3ccc(Cl)cc3Cl)[C@@H](OCC(C)C)[C@H](C)OC2=O)c1OCOC(C)=O [Compound F111] | 80 to 100% | – | 80 to 100% | – | 80 to 100% | – | 80 to 100% | – | – | – | 49 to 53 °C
COc1ccnc(C(=O)N[C@H]2COC[C@H](Cc3ccc(F)cc3)[C@@H](OC(=O)C(C)C)[C@H](C)OC2=O)c1OC(C)=O [Compound F56] | 80 to 100% | – | 80 to 100% | – | 80 to 100% | – | 80 to 100% | – | – | – | 74 to 79 °C
COc1ccnc(C(=O)N[C@H]2COC[C@H](Cc3ccc(Cl)cc3Cl)[C@@H](OCC(C)C)[C@H](C)OC2=O)c1OC(C)=O [Compound F74] | 80 to 100% | – | 80 to 100% | – | 80 to 100% | – | 80 to 100% | – | – | – | 69 to 73 °C
CCCCCO[C@@H]1[C@@H](CCc2ccccc2)COC[C@H](NC(=O)c2nccc(OC)c2O)C(=O)O[C@H]1C [Compound F3] | 80 to 100% | – | 80 to 100% | – | 80 to 100% | – | 80 to 100% | – | – | – | 96 to 98 °C
COc1ccnc(C(=O)N[C@H]2COC[C@H](Cc3ccc(F)cc3)[C@@H](OC(=O)C3CC3)[C@H](C)OC2=O)c1OCOC(C)=O [Compound F90] | 80 to 100% | – | 80 to 100% | – | 80 to 100% | – | 80 to 100% | – | – | – | 59 to 64 °C
